This passage reports IC50 results from patent US8017612B2, “Piperazine compound and use thereof as a HCV polymerase inhibitor” (priority 2006, dated 2011).

The term IC50 denotes the midpoint of a concentration-inhibition curve. Higher therefore signals lower potency.

Experiment [1] addresses T1, HCV polymerase (NS5B) type 1b (Hepatitis C virus genotype 1b, UniProt P26663).
T1 construct: a region encoding NS5B (J Virol 1991 March, 65(3), 1105-13, 544 amino acids after deletion of 47 amino acids on the C-terminal); 6xHis (C); made in house; host or cells: Escherichia coli
The experiment is described as follows: Assay of enzyme (HCV polymerase) inhibitory activity, type 1b enzyme. The settings on record: HCV polymerase inhibitory activity (IC50), 1b, type 1b enzyme 0.5 μg/ml, 25° C., 60 min. In kind it is biochemical, HCV BK strain (type 1b). Summed up: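 Polymerase activity was followed as radiolabelled UTP incorporation by E. coli-expressed, His-tagged NS5B of HCV type 1b lacking its last 47 residues. Conditions: 2 μM UTP, 50 μM other NTPs, Mg2+ buffer at pH 7.5, 25 °C for 60 min. Inhibition relative to compound-free reactions gave IC50.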

For experiment [2], the target named is T2, HCV polymerase (NS5B) type 1a (Hepatitis C virus genotype 1a, UniProt P26664).
T2 construct: made in house; host or cells: Escherichia coli (by the 'similar method' of the 1b enzyme)
As to the kind of experiment: Assay of enzyme (HCV polymerase) inhibitory activity, type 1a enzyme. In kind it is biochemical, HCV type 1a (cloned from the blood of patients). The conditions noted are these: HCV polymerase inhibitory activity (IC50), 1a, type 1a enzyme 1.5 μg/ml, 25° C., 60 min. The method, boiled down: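 IC50 values derive from radioactivity of newly synthesized RNA with versus without test compound. The enzyme was C-terminally truncated type 1a NS5B, 1.5 μg/ml, run 60 min at 25° C with 3H-UTP-labelled nucleotides.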

In the case of `CC(=O)N1CCN(S(=O)(=O)c2ccc(C(C)C)cc2)C(C(=O)NCCc2ccccc2)C1` (stereo not shown) [Example 118, 4-acetyl-1-(4-isopropyl-benzenesulfonyl)-piperazine-2-carboxylic acid phenethyl-amide], the half-maximal inhibitory concentration (IC50) in experiment [1] and in experiment [2] was more than 1 µM throughout.

`CC(=O)N1CCN(S(=O)(=O)c2ccc(C(C)C)cc2)C(C(=O)NCc2cccc(C(F)(F)F)c2)C1` (stereo not shown) [Example 119, 4-acetyl-1-(4-isopropyl-benzenesulfonyl)-piperazine-2-carboxylic acid 3-trifluoromethyl-benzylamide]: the IC50 in experiment [1] and in experiment [2] was more than 1 µM in each case.

Consider `CC(=O)N1CCN(S(=O)(=O)c2ccc(C(C)C)cc2)C(C(=O)NCc2ccccc2C(F)(F)F)C1` (stereo not shown) [Example 120, 4-acetyl-1-(4-isopropyl-benzenesulfonyl)-piperazine-2-carboxylic acid 2-trifluoromethyl-benzylamide], for which the half-inhibitory concentration (IC50) in experiment [1] and in experiment [2] was more than 1 µM in each case.

As for `CC(=O)N1CCN(S(=O)(=O)c2ccc(C(C)C)cc2)C(C(=O)NCc2cccc(OC(F)(F)F)c2)C1` (stereo not shown) [Example 121, 4-acetyl-1-(4-isopropyl-benzenesulfonyl)-piperazine-2-carboxylic acid 3-trifluoromethoxy-benzylamide], the IC50 in experiment [1] and in experiment [2] was more than 1 µM each time.

For the compound `CN(C)c1ccc(CNC(=O)C2CN(C(=O)CC3CCCCC3)CCN2S(=O)(=O)c2ccc(I)cc2)cc1` (stereo not shown) [Example 122, 4-(2-cyclohexyl-acetyl)-1-(4-iodo-benzenesulfonyl)-piperazine-2-carboxylic acid 4-dimethylamino-benzylamide], the concentration for half-maximal inhibition (IC50) in experiment [1] and in experiment [2] was more than 1 µM each time.

Turning to `CC(C)c1ccc(S(=O)(=O)N2CCN(C(=O)c3ccccc3)CC2C(=O)NCc2ccc(C(F)(F)F)cc2)cc1` (stereo not shown) [Example 123, 4-benzoyl-1-(4-isopropyl-benzenesulfonyl)-piperazine-2-carboxylic acid 4-trifluoromethyl-benzylamide], the IC50 in experiment [1] and in experiment [2] was more than 1 µM throughout.

With `CC(C)c1ccc(S(=O)(=O)N2CCN(C(=O)Cc3ccccc3)CC2C(=O)NCc2ccc(C(F)(F)F)cc2)cc1` (stereo not shown) [Example 124, 1-(4-isopropyl-benzenesulfonyl)-4-phenylacetyl-piperazine-2-carboxylic acid 4-trifluoromethyl-benzylamide], the IC50 in experiment [1] and in experiment [2] was more than 1 µM throughout.

`CC(C)c1ccc(S(=O)(=O)N2CCN(C(=O)COc3ccccc3)CC2C(=O)NCc2ccc(C(F)(F)F)cc2)cc1` (stereo not shown) [Example 125, 1-(4-isopropyl-benzenesulfonyl)-4-(2-phenoxy-acetyl)-piperazine-2-carboxylic acid 4-trifluoromethyl-benzylamide]: the IC50 in experiment [1] and in experiment [2] was more than 1 µM in each case.

For `CC(=O)N1CCN(S(=O)(=O)c2ccc(C(C)C)cc2)C(C(=O)NCc2ccc(Oc3ccccc3)cc2)C1` (stereo not shown) [Example 126, 4-acetyl-1-(4-isopropyl-benzenesulfonyl)-piperazine-2-carboxylic acid 4-phenoxy-benzylamide], the 50% inhibitory concentration (IC50) in experiment [1] and in experiment [2] was more than 1 µM in each case.

Consider `CC(=O)N1CCN(S(=O)(=O)c2ccc(C(C)C)cc2)C(C(=O)NCc2ccc(OC(C)C)cc2)C1` (stereo not shown) [Example 127, 4-acetyl-1-(4-isopropyl-benzenesulfonyl)-piperazine-2-carboxylic acid 4-isopropoxy-benzylamide], for which the IC50 in experiment [1] and in experiment [2] was more than 1 µM in each case.

With `CC(=O)N1CCN(S(=O)(=O)c2ccc(C(C)C)cc2)C(C(=O)NCc2cccc(N(C)C)c2)C1` (stereo not shown) [Example 128, 4-acetyl-1-(4-isopropyl-benzenesulfonyl)-piperazine-2-carboxylic acid 3-dimethylamino-benzylamide], the IC50 in experiment [1] and in experiment [2] was more than 1 µM in each case.

With `CC(=O)N1CCN(S(=O)(=O)c2ccc(C(C)C)cc2)C(C(=O)NCc2ccccc2N(C)C)C1` (stereo not shown) [Example 129, 4-acetyl-1-(4-isopropyl-benzenesulfonyl)-piperazine-2-carboxylic acid 2-dimethylamino-benzylamide], the IC50 in experiment [1] and in experiment [2] was more than 1 µM throughout.

Turning to `CCC(=O)N1CCN(S(=O)(=O)c2ccc(I)cc2)C(C(=O)NCc2ccc(N(C)C)cc2)C1` (stereo not shown) [Example 130, 1-(4-iodo-benzenesulfonyl)-4-propionyl-piperazine-2-carboxylic acid 4-dimethylamino-benzylamide], the IC50 in experiment [1] and in experiment [2] was more than 1 µM each time.

In the case of `CN(C)c1ccc(CNC(=O)C2CN(C(=O)Cc3ccccc3)CCN2S(=O)(=O)c2ccc(I)cc2)cc1` (stereo not shown) [Example 131, 1-(4-iodo-benzenesulfonyl)-4-phenylacetyl-piperazine-2-carboxylic acid 4-dimethylamino-benzylamide], the results for the IC50 in experiment [1] and in experiment [2] were 0.1 to 1 µM and more than 1 µM, respectively.

For the compound `CC(=O)N1CCN(S(=O)(=O)c2ccc(CO)cc2)C(C(=O)NCc2ccc(C(F)(F)F)cc2)C1` (stereo not shown) [Example 132, 4-acetyl-1-(4-hydroxymethyl-benzenesulfonyl)-piperazine-2-carboxylic acid 4-trifluoromethyl-benzylamide], the IC50 in experiment [1] and in experiment [2] was more than 1 µM each time.

On to `CC(C)c1ccc(S(=O)(=O)N2CCN(C3=NCCO3)CC2C(=O)NCc2ccc(C(F)(F)F)cc2)cc1` (stereo not shown) [Example 133, 4-(4,5-dihydro-oxazol-2-yl)-1-(4-isopropyl-benzenesulfonyl)-piperazine-2-carboxylic acid 4-trifluoromethyl-benzylamide], for which the IC50 in experiment [1] and in experiment [2] was more than 1 µM throughout.

Take `CC(C)c1ccc(S(=O)(=O)N2CCN(c3nc4ccccc4s3)CC2C(=O)NCc2ccc(C(F)(F)F)cc2)cc1` (stereo not shown) [Example 134, 4-benzothiazol-2-yl-1-(4-isopropyl-benzenesulfonyl)-piperazine-2-carboxylic acid 4-trifluoromethyl-benzylamide]: the IC50 in experiment [1] and in experiment [2] was more than 1 µM throughout.

As to `CC(C)c1ccc(S(=O)(=O)N2CCN(c3nc(-c4ccccc4)cs3)CC2C(=O)NCc2ccc(C(F)(F)F)cc2)cc1` (stereo not shown) [Example 135, 1-(4-isopropyl-benzenesulfonyl)-4-(4-phenyl-thiazol-2-yl)-piperazine-2-carboxylic acid 4-trifluoromethyl-benzylamide], the IC50 in experiment [1] and in experiment [2] was more than 1 µM each time.

Regarding `COc1ccc(S(=O)(=O)N2CCN(C(C)=O)CC2C(=O)NCc2ccc(C(F)(F)F)cc2)cc1OC` (stereo not shown) [Example 136, 4-acetyl-1-(3,4-dimethoxy-benzenesulfonyl)-piperazine-2-carboxylic acid 4-trifluoromethyl-benzylamide], the 50% inhibitory concentration (IC50) in experiment [1] and in experiment [2] was more than 1 µM each time.

`CC(=O)N1CCN(S(=O)(=O)c2ccc(C(C)C)cc2)[C@@H](C(=O)NCc2ccc(C(C)C)cc2)C1` [Example 137, (R)-4-acetyl-1-(4-isopropyl-benzenesulfonyl)-piperazine-2-carboxylic acid 4-isopropyl-benzylamide]: the half-maximal inhibitory concentration (IC50) in experiment [1] and in experiment [2] was less than 0.1 µM each time.

Regarding `CC(=O)N1CCN(S(=O)(=O)c2ccc(C(C)C)cc2)[C@@H](C(=O)NCCc2ccc(Cl)cc2)C1` [Example 138, (R)-4-acetyl-1-(4-isopropyl-benzenesulfonyl)-piperazine-2-carboxylic acid [2-(4-chloro-phenyl)-ethyl]-amide], the IC50 in experiment [1] and in experiment [2] was more than 1 µM throughout.

For `CC(=O)N1CCN(S(=O)(=O)c2ccc(C(C)C)cc2)C(C(=O)NCc2ccc(C3CCCC3)cc2)C1` (stereo not shown) [Example 139, 4-acetyl-1-(4-isopropyl-benzenesulfonyl)-piperazine-2-carboxylic acid 4-cyclopentyl-benzylamide], the IC50 in experiment [1] and in experiment [2] was 0.1 to 1 µM in each case.

In the case of `CCCC(CCC)c1ccc(CNC(=O)C2CN(C(C)=O)CCN2S(=O)(=O)c2ccc(C(C)C)cc2)cc1` (stereo not shown) [Example 140, 4-acetyl-1-(4-isopropyl-benzenesulfonyl)-piperazine-2-carboxylic acid 4-(1-propyl-butyl)-benzylamide], the IC50 in experiment [1] and in experiment [2] was more than 1 µM in each case.

On to `CC(=O)N1CCN(S(=O)(=O)c2ccc(C(C)C)cc2)C(C(=O)NCc2ccc(-c3cccc(Cl)c3)cc2)C1` (stereo not shown) [Example 141, 4-acetyl-1-(4-isopropyl-benzenesulfonyl)-piperazine-2-carboxylic acid (3′-chloro-biphenyl-4-ylmethyl)-amide], for which the IC50 in experiment [1] and in experiment [2] was more than 1 µM in each case.

In the case of `CC(=O)N1CCN(S(=O)(=O)c2ccc(C(C)C)cc2)C(C(=O)NCc2ccc(-c3ccccc3Cl)cc2)C1` (stereo not shown) [Example 142, 4-acetyl-1-(4-isopropyl-benzenesulfonyl)-piperazine-2-carboxylic acid (2′-chloro-biphenyl-4-ylmethyl)-amide], the IC50 in experiment [1] and in experiment [2] was more than 1 µM throughout.

In the case of `COCc1ccc(S(=O)(=O)N2CCN(C(C)=O)CC2C(=O)NCc2ccc(C(F)(F)F)cc2)cc1` (stereo not shown) [Example 143, 4-acetyl-1-(4-methoxymethyl-benzenesulfonyl)-piperazine-2-carboxylic acid 4-trifluoromethyl-benzylamide], the IC50 in experiment [1] and in experiment [2] was more than 1 µM throughout.
